Data from patent US20230270749A1, “THERMO-SENSITIVE PERMEATION ENHANCING FORMULATIONS FOR DRUG DELIVERY” (Children's Medical Center Corporation, priority 2020, published 2023).

Legend:
[1] = Solubility / dissolution in poloxamer-CPE formulations; type: physicochemical
[2] = Systemic exposure: ciprofloxacin in plasma after gel application; type: in vivo, chinchilla; conditions: after hydrogel treatment
Protocol: The blood levels of Cip were investigated by collection of plasma samples at predetermined intervals from the transverse sinuses of chinchillas after hydrogel treatment.
NTHi OM chinchilla model and pharmacokinetics. All procedures and manipulations were performed using sedation analgesia under isoflurane chamber induction followed by mask inhalation of 1-3% isoflurane in accordance with approved IACUC protocols at Boston Children's Hospital. […] Isolates of NTHi grown to the mid-log phase were diluted in Hanks' balanced salt solution (HBSS), and about 25 to 75 CFU in […] were directly introduced into each middle ear through the dorsal aspect of the tympanic bullae under aseptic conditions. […] Serial plasma samples were also obtained through the […] during the experiment to determine systemic drug levels.

[3] = type: in vivo, chinchilla; conditions: healthy / OM infected chinchillas
Protocol: Histopathology. Hydrogel formulations were administered onto the tympanic membrane of live healthy/OM chinchillas. After 7 days later, they were euthanized as described elsewhere. The TMs were then excised and immediately fixed in 10% neutral buffered formalin overnight. The sectioned TMs (˜10 μm thick) were stained with hematoxylin and eosin, and evaluated by light microscopy in a blinded fashion.

[4] = test system: H. influenza; conditions: stated without test or source; cited from earlier work
[5] = test system: S. pneumoniae; conditions: stated without test or source; cited from earlier work

| highest amount of CTX that can be dissolved in the P188-CPEs formulation while maintaining the desired rheological properties [1] | highest amount of CTX that can be dissolved in the P188-CPEs formulation as a powder form within a short time (<1 minute) ([1]; powder form, <1 minute) | Compound | ciprofloxacin in the bloodstream at any time point throughout the course of treatment [2] | ciprofloxacin in the bloodstream at any time point throughout the course of treatment ([2]; listed as Cip) | appearance of H&E-stained TM sections after 7 days [3] | minimum inhibitory concentration for middle ear infections [4] | minimum inhibitory concentration for middle ear infections [5] |
| --- | --- | --- | --- | --- | --- | --- | --- |
| 42.6% | 28% | CO/N=C(\C(=O)N[C@@H]1C(=O)N2C(C(=O)O)=C(CSc3nc(=O)c(=O)[nH]n3C)CS[C@H]12)c1csc(N)n1 [CTX, ceftriaxone sodium] |  |  |  |  |  |
|  |  | O=C(O)c1cn(C2CC2)c2cc(N3CCNCC3)c(F)cc2c1=O [ciprofloxacin] | no Ciprofloxacin was detectable | no Cip was detectable | much thicker than healthy TM | about 4 μg/mL | about 4 μg/mL |
